One may read the IC50 as the concentration that gives 50% inhibition. The term EC50 denotes the concentration needed to bring the measured effect to its halfway point.

Results on 18 compounds are retold here after patent US9815854B2, “3-(3H-imidazo[4,5-B]pyridin-2-yl)-1H-pyrazolo[3,4-C]pyridine and therapeutic uses thereof” (Samumed, LLC, priority 2014, dated 2017).

The subject of assay [1] is Wnt activity (Sp5-Luc reporter, TCF/LEF binding sites) in SW480 colon carcinoma cells. As to the kind of experiment: Sp5-Luc Wnt reporter gene screening assay in SW480 colon carcinoma cells. It is filed as cell-based, human. As to conditions: Homo sapiens. An excerpt: The screening assay for Wnt activity is described as follows. Reporter cell lines can be generated by stably transducing cancer cell lines (e.g., colon cancer) or primary cells (e.g., IEC-6 intestinal cells) with a lentiviral construct that includes a Wnt-responsive promoter driving expression of the firefly luciferase gene.
SW480 colon carcinoma cells were transduced with a lentiviral vector expressing luciferase with a human Sp5 promoter consisting of a sequence of eight TCF/LEF binding sites. SW480 cells stably expressing the Sp5-Luc reporter gene and a hygromycin resistance gene were selected by treatment with 150 μg/ml of hygroinycin for 7 days. These stably transduced SW480 cells were expanded in cell culture and used for all further screening activities. For Sp5-Luc reporter gene assays, the cells were plated at 10,000 cells/well in 96-well plates with growth medium containing 10% fetal calf serum and incubated overnight at 37° C. and 5% CO2. Each compound was dissolved in DMSO as a 10 mM stock in standard j-vials and used to prepare compound source plates in dose-response format with 3-fold serial dilutions and a 10 mM top concentration. Compound transfer from serially diluted source plates to assay plates containing the cells was accomplished using a pintool (Multimek 96, Beckman equipped with V&P Scientific FP1S50H pins) based liquid handling protocol. This protocol used a slotted pin to transfer 50 nl of compound from a source plate well to an assay plate well containing 50 μl of cells in growth medium. […] Control wells received 50 nl of DMSO treatment for nommlization and calculating IC50 values. The treated cells were incubated at 37° C. and 5% CO2 for an additional forty-two hours. Following incubation, the growth medium was removed and 50 μl of BrightGlo luminescence reagent (Promega) was added to each well of the 96-well assay plates. The plates were placed on an orbital shaker for 5 min and then luminescence was quantified on the Victor3 (Perkin Elmer) plate reader. Readings were normalized to DMSO only treated cells, and normalized activities were utilized for IC50 calculations using the dose-response log (inhibitor) vs. response—variable slope (four parameters) nonlinear regression feature available in GraphPad Prism 5.0 or 6.0.
A general note: Reporter assays use an easily measured gene product as a stand-in for the process of interest.

Assay [2] deals with primary human fibroblasts derived from IPF patients (LL29 cells). As to the kind of experiment: Inhibition of the fibrotic process in TGF-β1-treated primary human fibroblasts from IPF patients (αSMA staining). It is filed as cell-based. As to conditions: Fibroblast, 96 h, TGF-β1 20 ng/mL, 4 days, read-out: Inhibition of fibrosis EC50. An excerpt:
The above synthesized compounds were screened using primary human fibroblasts (derived from IPF patients) treated with TGF-β1 to determine their ability to inhibit the fibrotic process.
Human Fibroblast Celt Culture: Primary human fibroblasts derived from IPF patients (LL29 cells) [^1Xiaoqiu Liu, et.al., “Fibrotic Luna Fibroblasts Show Blunted Inhibition by cAMP Due to Deficient cAMP Response Element-Binding Protein Phosphorylation”, Journal of Pharmacology and Experimental Therapeutics (2005), 315(2), 678-687; ^2Watts, K. L., et.al., “RhoA signaling modulates cyclin D1 expression in human lung fibroblasts; implications for idiopathic pulmonary fibrosis”, Respiratory Research (2006), 7(1), 88] were obtained from American Type Culture Collection (ATCC) and expanded in F12 medium supplemented with 15% Fetal Bovine Serum and Penicillin/Streptomycin.
Compound Screening: Each compound was dissolved in DMSO as a 10 mM stock and used to prepare compound source plates. Serial dilution (1:2, 11-point dose-response curves from 10 μM to […]) and compound transfer was performed using the ECHO 550 (Lahcyte, Sunnyvale, Calif.) into 384-well clear bottom assay plates (Greiner Bio-One) with appropriate DMSO backfill fhr a final DMSO concentration of 0.1%. LL29 cells were plated at 1,500 cells/well in 80 μl/well F12 medium supplemented with 1% Fetal Bovine Serum. One hour after addition of the cells. TGF-β1 (Peprotech; 20 ng/mL) was added to the plates to induce fibrosis (ref. 1 and 2 above), Wells treated with TGF-β1 and containing DMSO were used as controls. Cells were incubated at 37° C. and 5% CO2 for 4 days. Following incubation for 4 days, SYTOX green nucleic acid stain (Life Technologies [Thermo Fisher Scientific]) was added to the wells at a final concentration of 1 uM and incubated at room temperature for 30 min. Cells were then fixed using 4% formaldehyde (Electron Microscopy Sciences), washed 3 times with PBS followed by blocking and penneabilization using 3% Bovine Serum Albumin (BSA; Sigma) and 0.3% Triton X-100 (Sigma) in PBS. Cells were then stained with antibody specific to α-smooth muscle actin (αSMA; Abeam) (ref 1 and 2 above) in 3% Bovine Serum Albumin (BSA; Sigma) and 0.3% Triton X-100 (Sigma) in PBS, and incubated overnight at 4° C. Cells were then washed 3 times with PBS, followed by incubation with Alexa Flor-647 conjugated secondary antibody (Life Technologies [Thermo Fisher Scientific]) and DAPI at room temperature for 1 hour, Cells were then washed 3 times with PBS and plates were sealed for imaging. αSMA staining was imaged by excitation at 630 nm and emission at 665 nm and quantified using the Compartmental Analysis program on the CellInsight CX5 (Thermo Scientific). Dead or apoptotic cells were excluded from analysis based on positive SYTOX green staining. % of total cells positive for αSMA were counted in each well and normalized to the average of 11 wells treated with TGF-β1 on the same plate using Dotmatics' Studies Software. The normalized averages (fold change over untreated) of 3 replicate wells for each compound concentration were used to create dose-responses curves and EC50 values were calculated using non-linear regression curve fit in the Dotmatics' Studies Software. The EC50 values are reported.

Some results are limits rather than exact numbers.

With `CN(C)Cc1cncc(-c2cc3c(-c4nc5c(-c6cccc(F)c6)ccnc5[nH]4)n[nH]c3cn2)c1` [Compound 13, 1-(5-(3-(7-(3-Fluorophenyl)-3H-imidazo[4,5-b]pyridin-2-yl)-1H-pyrazolo[3,4-c]pyridin-5-yl)pyridin-3-yl)-N,N-dimethylmethanamine], the 50% inhibitory concentration (IC50) in assay [1] was determined as 290 nM. The EC50 in assay [2] was 745 nM.
The like results for `CCCC(=O)Nc1cncc(-c2cc3c(-c4nc5c(-c6cccc(F)c6)ccnc5[nH]4)n[nH]c3cn2)c1` [Compound 17, N-(5-(3-(7-(3-Fluorophenyl)-3H-imidazo[4,5-b]pyridin-2-yl)-1H-pyrazolo[3,4-c]pyridin-5-yl)pyridin-3-yl)butyramide] were, in that order, 59.7 nM and at most 9 nM.
The like results for `O=C(Nc1cncc(-c2cc3c(-c4nc5c(-c6cccc(F)c6)ccnc5[nH]4)n[nH]c3cn2)c1)C1CC1` [Compound 19, N -(5-(3-(7-(3-Fluorophenyl)-3H-imidazo[4,5-b]pyridin-2-yl)-1H-pyrazolo[3,4-c]pyridin-5-yl)pyridin-3-yl)cyclopropanecarboxamide] were, in that order, 46.5 nM and 301 nM.
The like results for `Fc1ccc(-c2ccnc3[nH]c(-c4n[nH]c5cnc(-c6cncc(CN7CCCC7)c6)cc45)nc23)cc1` [Compound 40, 3-(7-(4-Fluorophenyl)-3H-imidazo[4,5-b]pyridin-2-yl)-5-(5-(pyrrolidn-1-ylmethyl)pyridin-3-yl)-1H-pyrazolo[3,4-c]pyridine] were, in that order, 321 nM and 348 nM.
Consider `CCCC(=O)Nc1cncc(-c2cc3c(-c4nc5c(-c6ccc(F)cc6)ccnc5[nH]4)n[nH]c3cn2)c1` [Compound 43, N-(5-(3-(7-(4-Fluorophenyl)-3H-imidazo[4,5-b]pyridin-2-yl)-1H-pyrazolo[3,4-c]pyridin-5-yl)pyridin-3-yl)butyramide], for which, in assay [1], the IC50 turned out to be 21.2 nM. The EC50 in assay [2] turned out to be 69 nM.
Take `O=C(Nc1cncc(-c2cc3c(-c4nc5c(-c6ccc(F)cc6)ccnc5[nH]4)n[nH]c3cn2)c1)C1CCC1` [Compound 46, N-(5-(3-(7-(4-Fluorophenyl)-3H-imidazo[4,5-b]pyridin-2-yl)-1H-pyrazolo[3,4-c]pyridin-5-yl)pyridin-3-yl)cyclobutanecarboxamide]: in assay [1], the IC50 turned out to be 50.8 nM. Besides, the concentration for a half-maximal effect (EC50) in assay [2] turned out to be 240 nM.
On to `Fc1ccc(-c2ccnc3[nH]c(-c4n[nH]c5cnc(-c6cncnc6)cc45)nc23)cc1` [Compound 52, 3-(7-(4-Fluorophenyl)-3H-imidazo[4,5-b]pyridin-2-yl)-5-(pyrimidin-5-yl)-1H-pyrazolo[3,4-c]pyridine], for which the IC50 in assay [1] was 65.3 nM. In addition, the EC50 in assay [2] worked out at 259 nM.
For the compound `Nc1cncc(-c2cc3c(-c4nc5c(-c6ccccc6F)ccnc5[nH]4)n[nH]c3cn2)c1` [Compound 55, 5-(3-(7-(2-Fluorophenyl)-3H-imidazo[4,5-b]pyridin-2-yl)-1H-pyrazolo[3,4-c]pyridin-5-yl)pyridin-3-amine], the concentration for half-maximal inhibition (IC50) in assay [1] was determined as 26.8 nM. Besides, in assay [2], the EC50 was determined as 20 nM.
The corresponding values for `CC(C)(C)C(=O)Nc1cncc(-c2cc3c(-c4nc5c(-c6ccccc6F)ccnc5[nH]4)n[nH]c3cn2)c1` [Compound 60] are 45.5 nM and at most 9 nM.
The corresponding values for `CCCC(=O)Nc1cncc(-c2cc3c(-c4nc5c(-c6ccccc6F)ccnc5[nH]4)n[nH]c3cn2)c1` [Compound 69, N-(5-(3-(7-(2-Fluorophenyl)-3H-imidazo[4,5-b]pyridin-2-yl)-1H-pyrazolo[3,4-c]pyridin-5-yl)pyridin-3-yl)butyramide] are 128 nM and 210 nM.
The corresponding values for `O=C(Nc1cncc(-c2cc3c(-c4nc5c(-c6ccccc6F)ccnc5[nH]4)n[nH]c3cn2)c1)C1CCCC1` [Compound 73, N-(5-(3-(7-(2-Fluorophenyl)-3H-imidazo[4,5-b]pyridin-2-yl)-1H-pyrazolo[3,4-c]pyridin-5-yl)pyridin-3-yl)cyclopentanecarboxamide] are 36.9 nM and 324 nM.
The compound `c1cncc(-c2cc3c(-c4nc5c(-c6cccnc6)ccnc5[nH]4)n[nH]c3cn2)c1` [Compound 82, 5-(Pyridin-3-7-(pyridin-3-yl)-3H-imidazo[4,5-b]pyridin-2-yl)-1H-pyrazolo[3,4-c]pyridine] yielded an IC50 in assay [1] of over 10000 nM. Also, in assay [2], the EC50 was at most 9 nM.
In assay [1], `CC(C)C(=O)Nc1cncc(-c2cc3c(-c4nc5c(-c6cccnc6)ccnc5[nH]4)n[nH]c3cn2)c1` [Compound 87, N-(5-(3-(7-(Pyridin-3-yl)-3 H-imidazo[4,5-b]pyridin-2-yl)-1H-pyrazolo[3,4-c]pyridin-5-yl)pyridin-3-yl)isobutyramide] yielded a half-maximal inhibitory concentration (IC50) of over 10000 nM. Also, the EC50 in assay [2] is at least 9990 nM.
The corresponding values for `CC(C)Nc1cncc(-c2cc3c(-c4nc5c(-c6cccnc6)ccnc5[nH]4)n[nH]c3cn2)c1` [Compound 90, N-Isopropyl-5-(3-(7-(pyridin-3-yl)-3H-imidazo[4,5-b]pyridin-2-yl)-1H-pyrazolo[3,4-c]pyridin-5-yl)pyridin-3-amine] are over 10000 nM and at least 9990 nM.
As for `c1ccc(CNCc2cncc(-c3cc4c(-c5nc6c(-c7cccnc7)ccnc6[nH]5)n[nH]c4cn3)c2)cc1` [Compound 101], the IC50 in assay [1] is over 10000 nM. Also, in assay [2], the concentration for a half-maximal effect (EC50) was at most 9 nM.
`CCNCc1cncc(-c2cc3c(-c4nc5c(-c6ccccn6)ccnc5[nH]4)n[nH]c3cn2)c1` [Compound 136, N-((5-(3-(7-(Pyridin-2-yl)-3H-imidazo[4,5-b]pyridin-2-yl)-1H-pyrazolo[3,4-c]pyridin-5-yl)pyridin-3-yl)methyl)ethanamine] showed a 50% inhibitory concentration (IC50) in assay [1] of 745 nM. Also, the EC50 in assay [2] is at most 9 nM.
In assay [1], `O=C(Nc1cncc(-c2cc3c(-c4nc5c(-c6ccccn6)ccnc5[nH]4)n[nH]c3cn2)c1)c1ccccc1` [Compound 141, N-(5-(3-(7-(Pyridin-2-yl)-3H-imidazo[4,5-b]pyridin-2-yl)-1H-pyrazolo[3,4-c]pyridin-5-yl)pyridin-3-yl)benzamide] displayed a 50% inhibitory concentration (IC50) of over 10000 nM. In assay [2], the EC50 was at least 9990 nM.
`CCCCC(=O)Nc1cncc(-c2cc3c(-c4nc5c(-c6ccccn6)ccnc5[nH]4)n[nH]c3cn2)c1` [Compound 148, N-(5-(3-(7-(Pyridin-2-yl)-3H-imidazo[4,5-b]pyridin-2-yl)-1H-pyrazolo[3,4-c]pyridin-5-yl)pyridin-3-yl)pentanamide]: the half-maximal inhibitory concentration (IC50) in assay [1] is over 10000 nM. In assay [2], the EC50 was at most 9 nM.
